Consider six compounds from PubChem BioAssay AID651642 (Sanford-Burnham Center for Chemical Genomics, 2012).

Assay [1] deals with H9c2. Nature of the assay: protection of cardiomyocytes from stress damage, SAR follow-up, cell-based, panel, H9c2 and HL-1, H2O2, 2-deoxyglucose, ATP luminescence (AID 651642).
Assay [2] concerns HL-1. The description is as above.
[3] abbreviates: H9c2/HL-1 cardiomyocyte 2-deoxyglucose damage, mean of runs, with 2-deoxyglucose, mean IC50 across panel.
Where [4] appears, read: H9c2/HL-1 cardiomyocyte 2-deoxyglucose damage, run 1, with 2-deoxyglucose.
Setting [5] is: H9c2/HL-1 cardiomyocyte 2-deoxyglucose damage, run 2, with 2-deoxyglucose.
The mark [6] stands for this setting: H9c2/HL-1 cardiomyocyte 2-deoxyglucose damage, run 3, with 2-deoxyglucose.
Setting [7] is: H9c2/HL-1 cardiomyocyte 2-deoxyglucose damage, run 4, with 2-deoxyglucose.
Setting [8] is: H9c2/HL-1 cardiomyocyte H2O2 oxidative damage, run 1, with H2O2.
[9] abbreviates: H9c2/HL-1 cardiomyocyte H2O2 oxidative damage, run 2, with H2O2.
Where [10] appears, read: H9c2/HL-1 cardiomyocyte H2O2 oxidative damage, run 3, with H2O2.
Where [11] appears, read: H9c2/HL-1 cardiomyocyte H2O2 oxidative damage, run 4, with H2O2.
Setting [12] is: H9c2/HL-1 cardiomyocyte H2O2 oxidative damage, mean of runs, with H2O2, mean IC50 across panel.

Consider `COc1ccc2c(c1OC)C(=O)N1c3ccccc3C(=O)N(Cc3ccccc3Br)C21` (stereo not drawn), for which the 50% inhibitory concentration (IC50) in assay [1] (setting [3]), in assay [1] (setting [4]), in assay [1] (setting [5]), in assay [1] (setting [6]), in assay [1] (setting [7]) and in assay [1] (setting [8]) was over 79 µM each time. Moreover, the IC50 in assay [1] (setting [9]) was 2.03 µM; in assay [1] (setting [10]) it was over 79 µM; in assay [1] (setting [11]) it was over 79 µM; in assay [2] (setting [3]), 13.4 µM; in assay [2] (setting [4]), 2.54 µM; in assay [2] (setting [5]), 2.85 µM. Further, the IC50 is 13.9 µM in assay [2] (setting [6]); 34.4 µM in assay [2] (setting [7]); over 79 µM in assay [2] (setting [12]); over 79 µM in assay [2] (setting [8]); over 79 µM in assay [2] (setting [9]); over 79 µM in assay [2] (setting [10]). In assay [2] (setting [11]), this compound had a half-inhibitory concentration (IC50) of over 79 µM.

Consider `COc1ccc2nc(-c3cc(OC)c(OC)c(OC)c3)cc(C(=O)Nc3cccc(C(C)=O)c3)c2c1`, for which the half-inhibitory concentration (IC50) is over 79 µM in assay [1] (setting [4]); 27.9 µM in assay [1] (setting [5]); over 79 µM in assay [1] (setting [6]); over 79 µM in assay [1] (setting [7]); 5.31 µM in assay [1] (setting [8]); 8.25 µM in assay [1] (setting [9]). Further, the IC50 in assay [1] (setting [10]) was over 79 µM; in assay [1] (setting [11]) it was 2.94 µM; in assay [2] (setting [4]), 6.04 µM; in assay [2] (setting [5]), 6.84 µM; in assay [2] (setting [6]), over 79 µM; in assay [2] (setting [7]) it was over 79 µM. Further, the IC50 was over 79 µM in assay [2] (setting [8]), over 79 µM in assay [2] (setting [9]), 3.8 µM in assay [2] (setting [10]) and 8.57 µM in assay [2] (setting [11]).

For the compound `COc1ccc2c(c1OC)C(=O)N1c3ccccc3C(=O)N(Cc3ccc(C)cc3)C21` (stereo not drawn), the concentration for half-maximal inhibition (IC50) in assay [1] (setting [3]), in assay [1] (setting [4]), in assay [1] (setting [5]), in assay [1] (setting [6]), in assay [1] (setting [7]) and in assay [1] (setting [8]) was over 79 µM each time. Further, the IC50 is 6.9 µM in assay [1] (setting [9]); over 79 µM in assay [1] (setting [10]); over 79 µM in assay [1] (setting [11]); 11.4 µM in assay [2] (setting [4]); 23.3 µM in assay [2] (setting [5]); over 79 µM in assay [2] (setting [6]). Also, the IC50 in assay [2] (setting [7]), in assay [2] (setting [8]), in assay [2] (setting [9]), in assay [2] (setting [10]) and in assay [2] (setting [11]) was over 79 µM each time.

Consider `COc1cc(-c2cc(C(=O)NCC(=O)Nc3ccc(C(C)=O)cc3)c3cc(F)ccc3n2)cc(OC)c1OC`, for which the IC50 in assay [1] (setting [3]) was over 79 µM; in assay [1] (setting [4]) it was over 79 µM; in assay [1] (setting [5]), over 79 µM; in assay [1] (setting [6]), over 79 µM; in assay [1] (setting [7]), over 79 µM; in assay [1] (setting [8]), 1.54 µM. For the same compound, the IC50 in assay [1] (setting [9]) was 2.4 µM; in assay [1] (setting [10]), over 79 µM; in assay [1] (setting [11]) it was over 79 µM; in assay [2] (setting [4]) it was 2.6 µM; in assay [2] (setting [5]), 3.39 µM; in assay [2] (setting [6]), over 79 µM. Also, the IC50 in assay [2] (setting [7]) is over 79 µM; in assay [2] (setting [12]) it was 4.71 µM; in assay [2] (setting [8]) it was 3.18 µM; in assay [2] (setting [9]), 10.4 µM; in assay [2] (setting [10]), 0.441 µM; in assay [2] (setting [11]), 4.84 µM.

On to `CCNC(=O)c1cccc(NC(=O)c2cc(-c3cc(OC)c(OC)c(OC)c3)nc3ccccc23)c1`, for which the half-maximal inhibitory concentration (IC50) in assay [1] (setting [3]) is 22.2 µM; in assay [1] (setting [4]), 21.3 µM; in assay [1] (setting [5]), 22.2 µM; in assay [1] (setting [6]), 22.4 µM; in assay [1] (setting [7]), 22.8 µM; in assay [1] (setting [12]) it was 4 µM. The 50% inhibitory concentration (IC50) in assay [1] (setting [8]) came to 4.85 µM; in assay [1] (setting [9]), 4.86 µM; in assay [1] (setting [10]), 2.88 µM; in assay [1] (setting [11]), 3.41 µM; in assay [2] (setting [3]), 9.33 µM; in assay [2] (setting [4]), 5.11 µM. For the same compound, the IC50 in assay [2] (setting [5]) was 6.24 µM; in assay [2] (setting [6]) it was 13 µM; in assay [2] (setting [7]) it was 13 µM; in assay [2] (setting [12]), 6.69 µM; in assay [2] (setting [8]), 3.81 µM; in assay [2] (setting [9]) it was 11.5 µM. The IC50 in assay [2] (setting [10]) came out at 3.71 µM; in assay [2] (setting [11]), 7.74 µM.

Regarding `COc1ccc2c(c1OC)C(=O)N1c3ccccc3C(=O)N(Cc3ccncc3)C21` (stereo not drawn), the IC50 in assay [1] (setting [3]), in assay [1] (setting [4]), in assay [1] (setting [5]), in assay [1] (setting [6]), in assay [1] (setting [7]) and in assay [1] (setting [8]) was over 79 µM each time. In addition, the half-inhibitory concentration (IC50) in assay [1] (setting [9]) is 55.3 µM; in assay [1] (setting [10]), over 79 µM; in assay [1] (setting [11]) it was over 79 µM; in assay [2] (setting [3]), over 79 µM; in assay [2] (setting [4]), over 79 µM; in assay [2] (setting [5]), over 79 µM. Besides, the half-inhibitory concentration (IC50) in assay [2] (setting [6]), in assay [2] (setting [7]), in assay [2] (setting [8]), in assay [2] (setting [9]), in assay [2] (setting [10]) and in assay [2] (setting [11]) was over 79 µM in each case.

In general, IC50 refers to the concentration that inhibits the measured activity by half. Low values mean greater potency, high ones weaker potency.
